Reference: ChEMBL document CHEMBL2086374, “C-Glucosylated malonitrile as a key intermediate towards carbohydrate-based glycogen phosphorylase inhibitors” (Bioorg Med Chem, 2012)

What was measured:
[1] = biological target: T1, Glycogen phosphorylase, muscle form (Oryctolagus cuniculus) (UniProt P00489); experiment: Inhibition of rabbit skeletal muscle glycogen phosphorylase-B using glucose-1-phosphate substrate assessed as […] in phosphate release at 1000 uM
T1 sequence (whole entry): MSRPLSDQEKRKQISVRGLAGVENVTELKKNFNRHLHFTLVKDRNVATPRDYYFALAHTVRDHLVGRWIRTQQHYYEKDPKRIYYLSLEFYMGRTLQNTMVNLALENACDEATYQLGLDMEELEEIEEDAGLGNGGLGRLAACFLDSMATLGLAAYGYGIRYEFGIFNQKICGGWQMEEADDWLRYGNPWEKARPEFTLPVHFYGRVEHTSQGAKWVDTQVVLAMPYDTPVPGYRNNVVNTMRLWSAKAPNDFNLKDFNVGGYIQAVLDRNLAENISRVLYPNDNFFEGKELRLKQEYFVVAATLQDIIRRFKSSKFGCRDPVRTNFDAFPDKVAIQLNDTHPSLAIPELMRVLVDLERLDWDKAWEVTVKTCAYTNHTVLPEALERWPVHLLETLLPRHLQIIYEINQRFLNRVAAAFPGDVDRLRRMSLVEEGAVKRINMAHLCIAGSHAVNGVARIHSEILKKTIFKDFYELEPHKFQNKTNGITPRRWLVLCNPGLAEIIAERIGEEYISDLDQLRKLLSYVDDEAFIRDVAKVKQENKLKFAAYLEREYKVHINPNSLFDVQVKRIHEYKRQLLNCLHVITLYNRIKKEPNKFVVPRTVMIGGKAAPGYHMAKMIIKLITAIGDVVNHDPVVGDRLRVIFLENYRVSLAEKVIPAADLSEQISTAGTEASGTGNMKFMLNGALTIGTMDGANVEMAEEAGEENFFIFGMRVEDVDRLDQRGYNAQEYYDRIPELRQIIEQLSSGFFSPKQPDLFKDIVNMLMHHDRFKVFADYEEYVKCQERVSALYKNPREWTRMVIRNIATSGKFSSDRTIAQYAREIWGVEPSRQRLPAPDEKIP

[2] = biological target: T1, Glycogen phosphorylase, muscle form (Oryctolagus cuniculus); experiment: Inhibition of rabbit skeletal muscle glycogen phosphorylase-B using glucose-1-phosphate substrate assessed as […] in phosphate release at 250 uM
[3] = Solubility of compound in water in presence of 20% DMSO; assay type: physicochemical; conditions: buffer
[4] = biological target: T1, Glycogen phosphorylase, muscle form (Oryctolagus cuniculus); experiment: Inhibition of rabbit skeletal muscle glycogen phosphorylase-B using glucose-1-phosphate substrate assessed as […] in phosphate release at 300 uM

inhibition [1] | SMILES | other results
39% | Cc1ccc(-c2noc(C(c3nc(-c4ccc(C)cc4)no3)[C@@H]3O[C@H](CO)[C@@H](O)[C@H](O)[C@H]3O)n2)cc1 | 
21% | O=C(NCC(CNC(=O)c1ccccc1)[C@@H]1O[C@H](CO)[C@@H](O)[C@H](O)[C@H]1O)c1ccccc1 | 
8.5% | O=C1NCC([C@@H]2O[C@H](CO)[C@@H](O)[C@H](O)[C@H]2O)CN1 | 
 | OC[C@H]1O[C@@H](C(c2nc(-c3ccc4ccccc4c3)no2)c2nc(-c3ccc4ccccc4c3)no2)[C@H](O)[C@@H](O)[C@@H]1O | inhibition [2]: 38%; solubility [3]: Insoluble
 | O=C(NCC(CNC(=O)c1ccc2ccccc2c1)[C@@H]1O[C@H](CO)[C@@H](O)[C@H](O)[C@H]1O)c1ccc2ccccc2c1 | inhibition [4]: 44%
